Where “and” joins values, the source holds several entries; their conditions need not be identical. Equal values may be shown once. Read-outs that look alike come from different tables or passages of the source.

The test system of one data set is CYP1A2. The settings on record: human, 3 days; for Enzyme activity, Phenacetin O-dealkylation (CYP1A2) / Percent positive control, Phenacetin O-dealkylation (CYP1A2) activity: hepatocytes. How it is done: (§1) After treatment, the cells were incubated in situ with marker substrates for the analysis of phenacetin O-dealkylation (marker for CYP1A2) and midazolam 1′-hydroxylation (marker for CYP3A4/5) by LC/MS/MS.
Incubations of hepatocytes with probe substrates were conducted in accordance with SOP L5041.02. Approximately 24 hours after the last treatment, spent media was aspirated from the wells, and each well was rinsed two times with pre-warmed (37±2° C.) fresh culture media. Media was aspirated from the wells and reactions were started by addition of 200 μL pre-warmed media containing the probe substrate to each well. […] At 30 minutes, an aliquot (150 μL) of the incubation mixture was removed and added to a well of a 96-well plate containing 300 μL of stop reagent (acetonitrile) and internal standard (Table 2). The mixtures were mixed thoroughly and allowed to sit for at least 15 minutes at 2-8° C. Samples were centrifuged at 2000×g for 10 minutes at 2-8° C., and supernatant fractions were analyzed by LC/MS/MS.
All analyses were performed with validated LC/MS/MS methods. The procedures used for the analysis of each metabolite followed the applicable LC/MS/MS analytical method SOPs and are summarized in Table 2. The MS equipment was either an ABI Sciex (Applied Biosystems/MDS SCIEX) API 4000 or API 3000 instrument with Shimadzu HPLC pumps and autosampler systems.
Individual rates of reaction from like treatment groups were averaged, and for those groups with n≧3, standard deviations were determined. Fold increases were determined by dividing the enzymatic rate for each treatment group by that of the vehicle control. Percent positive control was calculated with the following equation: […]

The subject of the next data set is CYP1A2 mRNA. The settings on record: human, 3 days. How it is done:
as §1
Approximately 24 hours after the last treatment, hepatocytes were lysed in TRIzol reagent after the in situ marker substrate incubations, and cell lysates were stored at −75±5° C. For human hepatocyte preparation H971, media from six wells per treatment group was aspirated, and approximately 132 μL TRIzol were added to each well. The cell lysates were mixed by repeated pipetting. Total RNA was isolated from the cell lysates using the TRIzol protocol (Invitrogen) and was purified using the RNeasy Mini Kit (Qiagen Inc.) according to SOP L6161.02. RNA quality and concentration were determined by measuring absorbance at 260 and 280 nm on a BioTek Synergy HT plate reader (BioTek Instruments, Inc.) with KC4 Signature software (version 3.4 Rev 21, BioTek Instruments, Inc.) according to SOP L6162.02. The analysis of RNA integrity was carried out with the RNA 6000 Nano Assay Kit on an Agilent 2100 Bioanalyzer (Agilent Technologies, Inc.) according to SOP L6162.02. Single-stranded cDNA was prepared from RNA with the RT Master Mix using the AB 7300 Real Time PCR system thermocycling program or AB 7900HT Fast Real Time PCR System thermocycling program (Applied Biosystems) according to SOP L6160.04. […] The RT Master Mix was added to each RNA sample to complete the components of the reaction. No template controls (NTCs) were included in the analysis. For the NTC reactions, RNase-free water was added in place of the RNA sample. The cDNA prepared samples were stored at −20±5° C. prior to analysis by qRT-PCR.
Quantitative RT-PCR was carried out according to SOP L6160.04 (XenoTech, LLC) and the Applied Biosystems protocol. Each PCR was performed in triplicate. A Primer Mix was prepared for each Gene Expression assay. A typical Primer Mix contained TaqMan Universal Master Mix (1×), Gene Expression Assay (1×, 900 nM forward and reverse primers) and RNase-free water. The Reaction Mix was prepared by adding the Primer Mix to cDNA. A percentage of samples (no less than 10%) included NACs. […] The relative quantity of the target cDNA compared with that of the control cDNA (GAPDH) was determined by the ΔΔCt method (Applied Biosystems User Bulletin #2). Relative quantification measures the change in mRNA expression in a test sample relative to that in a control sample (e.g., DMSO). This method assumes that the efficiency of the target amplification and the efficiency of the endogenous control amplification are approximately equal.
For qRT-PCR, data were processed using the Sequence Detection System (SDS) Software version 1.4, for Relative Quantification (Applied Biosystems). This software analyzes relative gene expression using the comparative Ct method (ΔΔCt), which relates the PCR signal of the target transcript to the PCR signal of the target in an untreated control. Both the treated sample and the untreated control signals are normalized to the endogenous control (GAPDH), for which expression is not affected by treatment and expression is constant throughout the tissue being tested. […] Calculations are as follows: ΔCt=Ct(target)−Ct(endogenous control) 1. ΔΔCt=ΔCt(treated sample)−ΔCt(untreated control) 2. Fold change in expression=2−ΔΔCt 3.
The level of mRNA expression relative to the positive control was calculated as follows: […]

Data set [1] in a line: Pharmacokinetic profile in rat plasma following oral administration. The class given is in vivo. The method, then: The main objectives of this example were: • Quantification of Compound 1, Compound 2, Compound 3 and Laquinimod in rat plasma using LC/MS/MS bioanalytical method. • Characterization of the pharmacokinetic profile of Compound 1, Compound 2, Compound 3 and Laquinimod following oral (PO) administration at a dose of 0.2 mg/kg. • The measurement DELAQ concentrations in the collected plasma samples. Rats cannulated at the right common jugular vein by polyethylene tubing were used. In the in-life part, three cannulated female rats were treated with each of the four test articles at dose of 0.2 mg/kg. Blood was withdrawn from the rats at five different time points for the preparation of plasma. The concentrations of Compound 1, Compound 2, Compound 3, laquinimod, and DELAQ were determined in these plasma samples, using applicable LC/MS/MS methods. Oral administration was performed by oral gavage at a dosage volume of 5 ml/kg using a blunt feeding stainless steel needle (Popper & Sons, USA). Body weights were measured before dose administration and doses were calculated on the basis of individual body weight. Blood were withdrawn from animals at the following time points: 1, 2, 4, 8 and 24 hours after dosing as detailed in the table below. The actual sampling time were recorded. Each animal was restrained firmly. After the removal of the seal the port of the cannula was accessed with an appropriate blunted needle mounted on a syringe containing PBS. After having withdrawn approximately 100 μL of blood, the syringe was changed to a clean heparinized syringe. Approximately 250 μL of blood was collected for the preparation of plasma. The first 100 μL fraction of blood was returned and 250 μL of PBS was given to the animal through the catheter. The catheter was filled by heparinized glycerol (100 IU/ml) solution prepared by mixing 10 ml stock heparin (200 IU/ml) with 10 ml of sterile glycerol (d=1.26 g/mL). Blood specimens were mixed immediately and were placed on water ice. Whole blood was centrifuged at 2500 g for 10 min at 4° C., and the separated plasma was transferred into pre-labeled polypropylene tubes and the tubes were frozen at −70° C. within 70 minutes of collection. The concentrations of test items (Compound 1, Compound 2, Compound 3 and Laquinimod) and the concentration of DELAQ were determined in the plasma samples by using reliable LC/MS/MS assay. Pharmacokinetic parameters were calculated and the mean plasma levels versus time curves were evaluated. The following pharmacokinetic parameters were determined from the mean plasma concentration-time data (mean of three animals at each time point) of Compound 1, Compound 2, Compound 3 and Laquinimod.

A further data set relates to MOG induced EAE. Put plainly: MOG induced EAE in C57BL/6 mice. The data set is classed as in vivo. The settings on record: 10 mg/kg orally, daily; for Mortality: Day 0 to Day 30; for % inhibition 1 (according to incidence) / % inhibition 2 (according to MMS) / % inhibition 3 (according to GMS): compared to vehicle; for Incidence: sick mice/group.
Setting [2] is: female, rat, po, 0.2 mg/kg, Average of rats.
[3] abbreviates: female, rat, po, 0.2 mg/kg, Average of rats, read-out: Cmax.
The mark [4] stands for this setting: female, rat, po, 0.2 mg/kg, Average of rats, read-out: Tmax.
Setting [5] is: female, rat, po, 0.2 mg/kg, individual rats.
The mark [6] stands for this setting: female, rat, po, 0.2 mg/kg, individual rats, read-out: Cmax.
The mark [7] stands for this setting: female, rat, po, 0.2 mg/kg, individual rats, read-out: Tmax.
Setting [8] is: individual rats, oral 0.2 mg/kg.

Take `COCC(=O)O[C@]1(CCN(C)CCCc2nc3ccccc3[nH]2)CCc2cc(F)ccc2[C@@H]1C(C)C` [Mibefradil]: in the data set with CYP1A2 (10 μM), the “Fold Increase, Phenacetin O-dealkylation (CYP1A2) activity” value amounted to 3.76 fold; the “Enzyme activity, Phenacetin O-dealkylation (CYP1A2)” value worked out at 11.3 ± 2.1 pmol/mg protein/min; the “Percent positive control, Phenacetin O-dealkylation (CYP1A2) activity” value turned out to be 10.1%. Further, the “mRNA Fold increase, CYP1A2” value in the data set on CYP1A2 mRNA (10 μM) was 0.423 fold. Also, in the data set on CYP1A2 mRNA (hepatocytes, 10 μM), the “decrease in CYP1A2 mRNA levels compared to vehicle control” value is 57.7% and the “mRNA Percent positive control, CYP1A2” value was −7.61%.

As a reminder, the AUC(0-inf) is total exposure, with the tail of the curve extrapolated. A low value points to less exposure. One may read the AUC(0-t) as the area under the concentration-time curve up to a stated or last time point. High values mean more exposure, low ones less exposure. One may read the half-life as the time in which the quantity being followed falls by half. A high value points to slow loss. In general, Cmax refers to the peak of the concentration-time curve. As usually defined, the Tmax is the time from dosing to the highest level. In the case of `[2H]c1c([2H])c([2H])c(N(CC)C(=O)c2c(O)c3c(Cl)cccc3n(C)c2=O)c([2H])c1[2H]` [Compound 1, N-ethyl-N-D5-phenyl-1,2-dihydro-4-hydroxy-5-chloro-1-methyl-2-oxoquinoline-3-carboxamide], in data set [1] (setting [2]), the AUC(0-inf) worked out at 13800 ng·h/mL, the AUC(0-t) was 10400 ng·h/mL and the half-life is 11.3 h. The Cmax in data set [1] (setting [3]) was determined as 774 ng/mL. The Tmax in data set [1] (setting [4]) is 1.8 h. In data set [1] (setting [5]), this compound had an AUC(0-inf) of 19300 ng·h/mL, an AUC(0-t) of 13700 ng·h/mL and a half-life of 13.4 h. The Cmax in data set [1] (setting [6]) came to 945 ng/mL. In addition, in data set [1] (setting [7]), the Tmax was 1 h. In data set [1] (setting [8]), the AUCinf is 13617.9 ng·h/mL and 9733.8 ng·h/mL and 12447.9 ng·h/mL; the AUClast was 10011.7 ng·h/mL and 8039.3 ng·h/mL and 10061.6 ng·h/mL; the Cmax is 730.7 ng/mL and 611.9 ng/mL and 809.5 ng/mL; the T1/2 was 12.1 h and 9.5 h and 10.0 h. Further, the Tmax in data set [1] (setting [8]) stood at 2.0 h. In the data set with MOG induced EAE, the “GMS value (group mean score)” value is 0.74 ± 0.86, the “MMS value (mean maximal score)” value came to 1.5 ± 1.7, the “Mean Duration” value is 7.9 ± 8.2 days and the “Mean Onset” value turned out to be 22.1 ± 8.9 days. Moreover, in the data set on MOG induced EAE, the “activity in inhibition of EAE clinical signs compared to laquinimod” value is reported as “no significant difference in activity”, the Mortality was 0/15, the “% inhibition 1 (according to incidence)” value worked out at 42.9% and the “% inhibition 2 (according to MMS)” value was 53.1%. In addition, in the data set on MOG induced EAE, the “% inhibition 3 (according to GMS)” value is 66.5% and the Incidence was 8/15.

Take `COc1ccc2[nH]c([S+]([O-])Cc3ncc(C)c(OC)c3C)nc2c1` (centres unmarked) [Omeprazole]: in the data set with CYP1A2 (100 μM), the “Enzyme activity, Phenacetin O-dealkylation (CYP1A2)” value came to 84.9 ± 5.4 pmol/mg protein/min and the “Percent positive control, Phenacetin O-dealkylation (CYP1A2) activity” value is listed as 100%. In addition, in the data set on CYP1A2 mRNA (100 μM), the “mRNA Fold increase, CYP1A2” value was found to be 8.58 fold. Besides, the “mRNA Percent positive control, CYP1A2” value in the data set with CYP1A2 mRNA (hepatocytes, 100 μM) was determined as 100%.

In data set [1] (setting [2]), `[2H]c1c([2H])c([2H])c(N(C(=O)c2c(O)c3c(Cl)cccc3n(C)c2=O)C([2H])([2H])C([2H])([2H])[2H])c([2H])c1[2H]` [Compound 3, N-D5-ethyl-N-D5-phenyl-1,2-dihydro-4-hydroxy-5-chloro-1-methyl-2-oxoquinoline-3-carboxamide] had an AUC(0-inf) of 15800 ng·h/mL, an AUC(0-t) of 10500 ng·h/mL and a half-life of 12.4 h. For the same compound, the Cmax in data set [1] (setting [3]) is 835 ng/mL. Further, in data set [1] (setting [4]), the time to peak (Tmax) was 1.4 h. Further, in data set [1] (setting [5]), the AUC(0-inf) is 15800 ng·h/mL and the half-life was 11.5 h. For the same compound, the Cmax in data set [1] (setting [6]) turned out to be 908 ng/mL. Moreover, in data set [1] (setting [7]), the Tmax was found to be 1 h. Moreover, in data set [1] (setting [8]), the AUCinf is 18246.2 ng·h/mL and 15225.2 ng·h/mL and 14845.1 ng·h/mL and 14643.7 ng·h/mL; the AUClast was 12110.0 ng·h/mL and 12471.5 ng·h/mL and 11280.4 ng·h/mL and 5317.8 ng·h/mL and 11156.0 ng·h/mL; the peak concentration (Cmax) is 800.4 ng/mL and 728.9 ng/mL and 833.2 ng/mL and 904.3 ng/mL; the T1/2 is 14.4 h and 12.7 h and 12.0 h and 11.6 h. Further, the time of peak concentration (Tmax) in data set [1] (setting [8]) was determined as 2.0 h. Further, in the data set on MOG induced EAE, the “GMS value (group mean score)” value was 0.89 ± 0.94, the “MMS value (mean maximal score)” value turned out to be 1.6 ± 1.6, the “Mean Duration” value is listed as 9.6 ± 9.4 days and the “Mean Onset” value stood at 21.5 ± 9.3 days. Moreover, in the data set with MOG induced EAE, the “activity in inhibition of EAE clinical signs compared to laquinimod” value is given as “no significant difference in activity”, the Mortality was 0/15, the “% inhibition 1 (according to incidence)” value is given as 28.6% and the “% inhibition 2 (according to MMS)” value is on record as 50.1%. For the same compound, in the data set on MOG induced EAE, the “% inhibition 3 (according to GMS)” value is recorded as 59.7% and the Incidence was 10/15.

These data come from patent publication US9102620B2, “Deuterated N-ethyl-N-phenyl-1,2-dihydro-4-hydroxy-5-chloro-1-methyl-2-oxoquinoline-3-carboxamide, salts and uses thereof” (TEVA PHARMACEUTICAL INDUSTRIES, LTD., priority 2010, dated 2015).
